# Measured values from patent US20210085640A1, “ACYLATED CATECHIN POLYPHENOLS AND METHODS OF THEIR USE FOR THE TREATMENT OF CANCER” (Flagship Pioneering Innovations V, Inc., priority 2018, published 2021).
# Columns and labels:
# [1] = Human Regulatory T Cell Differentiation Assay; type: cell-based; conditions: human, primary naïve CD4+ T cells isolated from PBMCs, read-out: Cell viability % DMSO
# Protocol: Peripheral blood mononuclear cells (PBMCs) from whole blood donated by health volunteers were separated by Ficoll-Paque gradient centrifugation and naïve CD4^+ T cells were subsequently isolated using magnet beads (EasySep™ Human Naïve CD4^+ T Cell Isolation Kit, Cambridge, Mass.). For regulatory T cell (Treg) differentiation assay, naïve CD4^+ T cells were cultured (1-10×10^4 cells) in CTS OpTmizer medium for 6 days and stimulated with 5 ng/ml TGF-β, 100 U/ml IL-2, and ImmunoCult™ Human […] T Cell Activator; Stemcell #10990) with/without Compounds. Cell viability was determined using a viability dye (eBioscience Fixable Viability Dye eFluor 780: ThermoFisher 65-0865-14) at 1:500 dilution. The cells were gated for Treg, defined as Live, CD11c^−, CD14^−, CD19^−, CD8^−, CD4^+, CD3^+, CD25^+, FOXP3^+. Percent (%) Tregs were calculated as percentage of CD4^+, CD25^+, FOXP3^+ cells over total CD4^+ T cells. Statistical analysis was performed with GraphPad Prism Software Using One-Way ANOVA.
# [2] = Stability in Simulated Gastric Fluid (SGF); type: in vitro ADME; conditions: SGF pH 1.6 with pepsin, 1 μM, 37° C.
# Protocol: Stability of acylated active agents in Simulated Gastric Fluid (SGF). This assay was used to assess the stability of an acylated active agent in a stomach.
# Medium was prepared by dissolving 2 g of sodium chloride in 0.6 L in ultrapure water (MilliQ®, Millipore Sigma, Darmstadt, Germany). The pH was adjusted to 1.6 with 1N hydrochloric acid, and the volume was then adjusted to 1 L with purified water.
# 60 mg FaSSIF powder (Biorelevant™, London, UK) were dissolved in 500 mL buffer (above). Pepsin was added (0.1 mg/mL) (Millipore Sigma, Darmstadt, Germany), and the solution was stirred. The resulting SGF media were used fresh for each experiment.
# (§1) Test compounds were dissolved in DMSO stock to 1 mM. An aliquot of the DMSO stock solution was removed and diluted in the SGF Media in 15 mL falcon tubes to generate a total compound concentration of 1 μM. A 1 mL aliquot was immediately removed and diluted once with 1 volume of acetonitrile for T0 timepoint. The mixture was sealed and mixed at 37° C. in an incubator. Aliquots (1 mL) were removed at regular intervals and immediately quenched by the addition of 1 volume of acetonitrile. The resulting samples were analyzed by LC/MS to determine degradation rates
# [3] = Stability in Simulated Intestinal Fluid (SIF); type: in vitro ADME; conditions: for Assay 2 (SIF) (% @ Remaining 4 hours): SIF pH 6.7 with pancreatin, 1 μM, 37° C.; for selective delivery to the upper intestine: conclusion drawn from Table 1 (SGF and SIF stability)
# Protocol: SIF Stability of acylated active agents in Simulated Intestinal Fluid (SIF). This assay was used to assess the stability of an acylated active agent in a small intestine.
# Phosphate buffer was prepared by dissolving 0.42 g of sodium hydroxide pellets and 3.95 g of monobasic sodium phosphate monohydrate and 6.19 g of sodium chloride in ultrapure water (MilliQ®, Millipore Sigma, Darmstadt, Germany). The pH was adjusted to 6.7 using aq. HCl and aq. NaOH, as necessary, and the solution was diluted with ultrapure water to produce 1 L of the pH 6.7 buffer.
# 112 mg FaSSIF powder (Biorelevant™, London, UK) was dissolved in 50 mL of the pH 6.7 buffer. 2 to 3 mL of the resulting solution were then added to 500 mg pancreatin (Millipore Sigma, Darmstadt, Germany). The resulting mixture was agitated by finger tapping the vessel containing the mixture until milky suspension formed. At this time, the remainder of the 50 mL FaSSiF/pH 6.7 buffer solution was added. The resulting suspension was flipped upside down 10 times to produce SIF, which was used fresh.
# as §1, with “SIF media” for “SGF Media”, “produce” for “generate”, “mixture with a tested” for “total”, “agitated” for “mixed”, “rates.” for “rates”
Compound,Assay 1 (SGF) (% Remaining @ 1 hours) [2],Assay 2 (SIF) (% @ Remaining 4 hours) [3],selective delivery to the upper intestine [3],further results
"C[C@@H](O)CCO [(R)-1,3-Butanediol]",,,,"viability at 6 days, 100 µM [1]: 90 to 110%; viability at 6 days, 0.5 mM ([1]; 0.5 mM): 90 to 110%"
CC(=O)O [Acetic acid],,,,"viability at 6 days, 1 mM ([1]; 1 mM): 90 to 110%; viability at 6 days, 3 mM [1]: 90 to 110%"
CCCC(=O)O [Butyric Acid],,,,"viability at 6 days, 3 mM [1]: < 90%"
"CCCC(=O)Oc1cc(OC(=O)CCC)c2c(=O)c(OC(=O)CCC)c(-c3ccc(OC(=O)CCC)c(OC(=O)CCC)c3)oc2c1 [Compound 5, [2-butanoyloxy-4-[3,5,7-tri(butanoyloxy)-4-oxo-chromen-2-yl]phenyl] butanoate]",C (>75% of the tested compound remaining),B (25-75% of the tested compound remaining),can be selectively delivered to the upper intestine,
"CC(=O)Oc1ccc(C2CC(=O)c3c(OC(C)=O)cc(OC(C)=O)cc3O2)cc1 (stereo not shown) [Compound 9, [4-(5,7-diacetoxy-4-oxo-chroman-2-yl)phenyl] acetate]",C (>75% of the tested compound remaining),A (<25% of the tested compound remaining),can be selectively delivered to the upper intestine,
"CCCC(=O)Oc1ccc(C2CC(=O)c3c(OC(=O)CCC)cc(OC(=O)CCC)cc3O2)cc1 (stereo not shown) [Compound 10, [4-[5,7-di(butanoyloxy)-4-oxo-chroman-2-yl]phenyl] butanoate]",B (25-75% of the tested compound remaining),A (<25% of the tested compound remaining),,
"CCC(=O)Oc1cc(O)c2c(=O)cc(-c3ccc(OC(=O)CC)c(OC(=O)CC)c3)oc2c1 [Compound 12, 4-(5-hydroxy-4-oxo-7-(propionyloxy)-4H-chromen-2-yl)-1,2-phenylene dipropionate]",C (>75% of the tested compound remaining),A (<25% of the tested compound remaining),can be selectively delivered to the upper intestine,
"CCC(=O)Oc1cc(OC(=O)CC)c2c(=O)c(OC(=O)CC)c(-c3cc(OC(=O)CC)c(OC(=O)CC)c(OC(=O)CC)c3)oc2c1 [Compound 13, [4-oxo-3,5-di(propanoyloxy)-2-[3,4,5-tri(propanoyloxy)phenyl]chromen-7-yl] propanoate]",C (>75% of the tested compound remaining),A (<25% of the tested compound remaining),can be selectively delivered to the upper intestine,
"CCC(=O)Oc1ccc2c(c1)oc(=O)c1cc(OC(=O)CC)c(OC(=O)CC)cc12 [Compound 18, [6-oxo-8,9-di(propanoyloxy)benzo[c]chromen-3-yl] propanoate]",C (>75% of the tested compound remaining),A (<25% of the tested compound remaining),can be selectively delivered to the upper intestine,
"CCCC(=O)OCC[C@@H](C)OC(=O)Oc1ccc(/C=C/c2cc(OC(=O)O[C@H](C)CCOC(=O)CCC)cc(OC(=O)O[C@H](C)CCOC(=O)CCC)c2)cc1 [Compound 25, [(3R)-3-[4-[(E)-2-[3,5-bis[[(1R)-3-butanoyloxy-1-methyl-propoxy]carbonyloxy]phenyl]vinyl]phenoxy]carbonyloxybutyl] butanoate]",C (>75% of the tested compound remaining),A (<25% of the tested compound remaining),can be selectively delivered to the upper intestine,
"CCCC(=O)O[C@H](C)CCOC(=O)Oc1ccc(/C=C/c2cc(OC(=O)OCC[C@@H](C)OC(=O)CCC)cc(OC(=O)OCC[C@@H](C)OC(=O)CCC)c2)cc1 [Compound 26, [(1R)-3-[4-[(E)-2-[3,5-bis[[(3R)-3-butanoyloxybutoxy]carbonyloxy]phenyl]vinyl]phenoxy]carbonyloxy-1-methyl-propyl] butanoate]",C (>75% of the tested compound remaining),B (25-75% of the tested compound remaining),,
"CCC(=O)OCC[C@@H](C)OC(=O)Oc1ccc(/C=C/c2cc(OC(=O)O[C@H](C)CCOC(=O)CC)cc(OC(=O)O[C@H](C)CCOC(=O)CC)c2)cc1 [Compound 27, [(3R)-3-[4-[(E)-2-[3,5-bis[[(1R)-1-methyl-3-propanoyloxy-propoxy]carbonyloxy]phenyl]vinyl]phenoxy]carbonyloxybutyl] propanoate]",C (>75% of the tested compound remaining),A (<25% of the tested compound remaining),can be selectively delivered to the upper intestine,
"CCC(=O)O[C@H](C)CCOC(=O)Oc1ccc(/C=C/c2cc(OC(=O)OCC[C@@H](C)OC(=O)CC)cc(OC(=O)OCC[C@@H](C)OC(=O)CC)c2)cc1 [Compound 28, (2R,2′R)-((((5-(E)-4-((((R)-3-(propionyloxy)butoxy)carbonyl)oxy)styryl)-1,3-phenylene)bis(oxy))bis(carbonyl))bis(oxy))bis(butane-4,2-diyl) dipropionate]",B (25-75% of the tested compound remaining),A (<25% of the tested compound remaining),,
"CC(=O)OCC[C@@H](C)OC(=O)Oc1ccc(/C=C/c2cc(OC(=O)O[C@H](C)CCOC(C)=O)cc(OC(=O)O[C@H](C)CCOC(C)=O)c2)cc1 [Compound 33, [(3R)-3-[4-[(E)-2-[3,5-bis[[(1R)-3-acetoxy-1-methyl-propoxy]carbonyloxy]phenyl]vinyl]phenoxy]carbonyloxybutyl] acetate]",C (>75% of the tested compound remaining),A (<25% of the tested compound remaining),can be selectively delivered to the upper intestine,
"CC(=O)O[C@H](C)CCOC(=O)Oc1ccc(/C=C/c2cc(OC(=O)OCC[C@@H](C)OC(C)=O)cc(OC(=O)OCC[C@@H](C)OC(C)=O)c2)cc1 [Compound 34, [(1R)-3-[4-[(E)-2-[3,5-bis[[(3R)-3-acetoxybutoxy]carbonyloxy]phenyl]vinyl]phenoxy]carbonyloxy-1-methyl-propyl] acetate]",C (>75% of the tested compound remaining),A (<25% of the tested compound remaining),can be selectively delivered to the upper intestine,
CC[C@H]1[C@@H](O)[C@@H]2[C@H](CC[C@]3(C)[C@@H]([C@H](C)CCC(=O)O)CC[C@@H]23)[C@@]2(C)CC[C@@H](O)C[C@@H]12 [Obeticholic acid],,,,"viability at 6 days, 100 µM [1]: 90 to 110%"
O=c1c(O)c(-c2ccc(O)c(O)c2)oc2cc(O)cc(O)c12 [Quercetin],,,,"viability at 6 days, 0.1 µM ([1]; 100 nM): 90 to 110%; viability at 6 days, 1 µM ([1]; 1 uM): 90 to 110%"
CN(CCOc1ccc(CC2SC(=O)NC2=O)cc1)c1ccccn1 (stereo not shown) [Rosiglitazone],,,,"viability at 6 days, 10 µM ([1]; 10 uM): 90 to 110%; viability at 6 days, 100 µM [1]: < 90%"
